The term IC50 denotes the midpoint of a concentration-inhibition curve.

For three compounds, IC50 results are on record in BindingDB's records for doi:10.1021/acs.jnatprod.0c01136 (Chinese Academy of Sciences, 2021).

The nature of this assay: Inhibition of spike glycoprotein S in SARS-CoV-2 pseudovirus infected in human 293T/ACE2 cells assessed as inhibition of viral infection pretreated the virus for 30 mins followed by viral infection measured after 48 hrs by luciferase reporter gene assay. In general terms: In a reporter assay the amount or activity of a reporter protein is the signal.

For `COc1c(O)c2c(=O)cc(OC)c3c4c(OC)cc(=O)c5c(O)c(OC)c6c(c(c1C[C@](C)(O)[C@H]6C(C)=O)c23)c54`, the IC50 stood at 120 nM.
As for `COC1=C(CC(C)=O)C(=O)c2c(c(O)cc(OC)c2-c2c(OC)cc(O)c3c2C(=O)C(CC(C)=O)=C(OC)C3=O)C1=O`, the IC50 is 170 nM.
In the case of `COc1c2c3c4c(c(OC)c(=O)c5c(O)cc(OC)c(c6c(OC)cc(O)c(c1=O)c63)c54)[C@@H](C(C)=O)[C@@](C)(O)C2` [Hypocrellin A], the IC50 came out at 38 nM.
